Where a name gives a salt, the structure may show the parent alone. Read-outs that look alike come from different tables or passages of the source.
Key:
Assay in all cases: AK assay 384-well format, Prestwick library screening
E. faecium = type: cell-based, Enterococcus faecium; settings: 50 μM final drug concentration; for fold induction at 50 µM: Enterococcus faecium, 3 h
[1] = tested on: S. aureus strain USA300-0114; type: cell-based, Staphylococcus aureus; settings: 50 μM final drug concentration; for fold induction at 50 µM: Staphylococcus aureus, USA300, 3 h
K. pneumoniae = type: cell-based, Klebsiella pneumoniae; settings: 50 μM final drug concentration; for fold induction at 50 µM: Klebsiella pneumoniae, 3 h
[2] = tested on: A. baumannii strain 98-37-09; type: cell-based, Acinetobacter baumannii; settings: 50 μM final drug concentration; for fold induction at 50 µM: Acinetobacter baumannii, 983709, 3 h
P. aeruginosa = type: cell-based, Pseudomonas aeruginosa; settings: 50 μM final drug concentration; for fold induction at 50 µM: Pseudomonas aeruginosa, 3 h
E. cloacae = type: cell-based, Enterobacter cloacae; settings: 50 μM final drug concentration; for fold induction at 50 µM: Enterobacter cloacae, 3 h
E. coli = type: cell-based, Escherichia coli; settings: 50 μM final drug concentration; for fold induction at 50 µM: Escherichia coli, 3 h
[3] = planktonic E. faecium, 384-well, cutoff for positive-scoring molecules 3-fold increase, read-out: AK-based Prestwick Library Screening Results: E. faecium (increase in extracellular AK activity)
[4] = planktonic S. aureus, 384-well, cutoff for positive-scoring molecules 3-fold increase, read-out: AK-based Prestwick Library Screening Results: S. aureus (increase in extracellular AK activity)
[5] = planktonic K. pneumoniae, 384-well, cutoff for positive-scoring molecules 3-fold increase, read-out: AK-based Prestwick Library Screening Results: K. pneumoniae (increase in extracellular AK activity)
[6] = planktonic A. baumannii, 384-well, cutoff for positive-scoring molecules 3-fold increase, read-out: AK-based Prestwick Library Screening Results: A. baumannii (increase in extracellular AK activity)
[7] = planktonic P. aeruginosa, 384-well, cutoff for positive-scoring molecules 3-fold increase, read-out: AK-based Prestwick Library Screening Results: P. aeruginosa (increase in extracellular AK activity)
[8] = planktonic E. cloacae, 384-well, cutoff for positive-scoring molecules 3-fold increase, read-out: AK-based Prestwick Library Screening Results: E. cloacae (increase in extracellular AK activity)
[9] = planktonic E. coli, 384-well, cutoff for positive-scoring molecules 3-fold increase, read-out: AK-based Prestwick Library Screening Results: E. coli (increase in extracellular AK activity)
[10] = planktonic, cutoff for positive 3-fold increase, read-out: AK-based Prestwick Library Screening Results, E. faecium (fold increase in extracellular AK activity)
[11] = planktonic, cutoff for positive 3-fold increase, read-out: AK-based Prestwick Library Screening Results, S. aureus (fold increase in extracellular AK activity)
[12] = planktonic, cutoff for positive 3-fold increase, read-out: AK-based Prestwick Library Screening Results, K. pneumoniae (fold increase in extracellular AK activity)
[13] = planktonic, cutoff for positive 3-fold increase, read-out: AK-based Prestwick Library Screening Results, A. baumannii (fold increase in extracellular AK activity)
[14] = planktonic, cutoff for positive 3-fold increase, read-out: AK-based Prestwick Library Screening Results, P. aeruginosa (fold increase in extracellular AK activity)
[15] = planktonic, cutoff for positive 3-fold increase, read-out: AK-based Prestwick Library Screening Results, E. cloacae (fold increase in extracellular AK activity)
[16] = planktonic, cutoff for positive 3-fold increase, read-out: AK-based Prestwick Library Screening Results, E. coli (fold increase in extracellular AK activity)

**Q.** Which results are given for `CC/C(=C(\c1ccccc1)c1ccc(OCCN(C)C)cc1)c1ccccc1` [Tamoxifen citrate]?
**A.** fold induction at 50 µM (E. faecium; [3]): 4; fold induction at 50 µM [1, 4]: 2.1; fold induction at 50 µM (K. pneumoniae; [5]): 2.1; fold induction at 50 µM [2, 6]: 6.6; fold induction at 50 µM (P. aeruginosa; [7]): 1.4; fold induction at 50 µM (E. cloacae; [8]): 1.3; fold induction at 50 µM (E. coli; [9]): 1.9

**Q.** `CCN(CC)CCOC(=O)C(Cc1cccc2ccccc12)CC1CCCO1` (stereo not drawn) [Nafronyl oxalate] was tested. Which fold induction at 50 µM (E. faecium; [10]) did it give?
**A.** 1

**Q.** What about the fold induction at 50 µM [1, 11] of the same compound?
**A.** 0.9

**Q.** And the fold induction at 50 µM (K. pneumoniae; [12])?
**A.** 1

**Q.** And the fold induction at 50 µM [2, 13]?
**A.** 1

**Q.** What about the fold induction at 50 µM (P. aeruginosa; [14]) of the same compound?
**A.** 1.1

**Q.** What about the fold induction at 50 µM (E. cloacae; [15]) of the same compound?
**A.** 1.4

**Q.** What about the fold induction at 50 µM (E. coli; [16]) of the same compound?
**A.** 1

**Q.** `O=C1O[C@H]([C@@H](O)CO)C(O)=C1O` [Ascorbic acid] was tested. Which fold induction at 50 µM (E. faecium; [3]) did it give?
**A.** 0.9

**Q.** And the fold induction at 50 µM [1, 4]?
**A.** 0.4

**Q.** And the fold induction at 50 µM (K. pneumoniae; [5])?
**A.** 0.5

**Q.** What about the fold induction at 50 µM [2, 6] of the same compound?
**A.** 0.4

**Q.** What about the fold induction at 50 µM (P. aeruginosa; [7]) of the same compound?
**A.** 0.3

**Q.** And the fold induction at 50 µM (E. cloacae; [8])?
**A.** 0.4

**Q.** And the fold induction at 50 µM (E. coli; [9])?
**A.** 0.5

**Q.** Which fold induction at 50 µM (E. faecium; planktonic E. faecium, cutoff for positive-scoring molecules 3-fold increase, read-out: AK-based Prestwick Library Screening Results, E. faecium (increase in extracellular AK activity)) does the source give for `NS(=O)(=O)c1cc(C(=O)O)c(NCc2ccco2)cc1Cl` [Furosemide] here?
**A.** 0.9

**Q.** What about the fold induction at 50 µM ([1]; planktonic S. aureus, cutoff for positive-scoring molecules 3-fold increase, read-out: AK-based Prestwick Library Screening Results, S. aureus (increase in extracellular AK activity)) of the same compound?
**A.** 0.7

**Q.** What about the fold induction at 50 µM (K. pneumoniae; planktonic K. pneumoniae, cutoff for positive-scoring molecules 3-fold increase, read-out: AK-based Prestwick Library Screening Results, K. pneumoniae (increase in extracellular AK activity)) of the same compound?
**A.** 0.7

**Q.** And the fold induction at 50 µM ([2]; planktonic A. baumannii, cutoff for positive-scoring molecules 3-fold increase, read-out: AK-based Prestwick Library Screening Results, A. baumannii (increase in extracellular AK activity))?
**A.** 0.8

**Q.** What about the fold induction at 50 µM (P. aeruginosa; planktonic P. aeruginosa, cutoff for positive-scoring molecules 3-fold increase, read-out: AK-based Prestwick Library Screening Results, P. aeruginosa (increase in extracellular AK activity)) of the same compound?
**A.** 0.9

**Q.** What about the fold induction at 50 µM (E. cloacae; planktonic E. cloacae, cutoff for positive-scoring molecules 3-fold increase, read-out: AK-based Prestwick Library Screening Results, E. cloacae (increase in extracellular AK activity)) of the same compound?
**A.** 0.8

**Q.** What about the fold induction at 50 µM (E. coli; planktonic E. coli, cutoff for positive-scoring molecules 3-fold increase, read-out: AK-based Prestwick Library Screening Results, E. coli (increase in extracellular AK activity)) of the same compound?
**A.** 1

**Q.** For `CCc1oc2ccccc2c1C(=O)c1cc(Br)c(O)c(Br)c1` [Benzbromarone], which fold induction at 50 µM (E. faecium; [10]) is on record?
**A.** 1.2

**Q.** What about the fold induction at 50 µM [1, 11] of the same compound?
**A.** 0.4

**Q.** And the fold induction at 50 µM (K. pneumoniae; [12])?
**A.** 0.9

**Q.** And the fold induction at 50 µM [2, 13]?
**A.** 1.4

**Q.** And the fold induction at 50 µM (P. aeruginosa; [14])?
**A.** 1.5

**Q.** What about the fold induction at 50 µM (E. cloacae; [15]) of the same compound?
**A.** 1.4

**Q.** And the fold induction at 50 µM (E. coli; [16])?
**A.** 1.1

**Q.** Which fold induction at 50 µM (E. faecium; planktonic E. faecium, […], read-out: AK-based Prestwick Library Screening Results, E. faecium (increase in extracellular AK activity)) does the source give for `CCCC(C)(COC(N)=O)COC(=O)NC(C)C` (stereo not drawn) [Carisoprodol] here?
**A.** 0.9

**Q.** And the fold induction at 50 µM ([1]; planktonic S. aureus, […], read-out: AK-based Prestwick Library Screening Results, S. aureus (increase in extracellular AK activity))?
**A.** 0.7

**Q.** What about the fold induction at 50 µM (K. pneumoniae; planktonic K. pneumoniae, […], read-out: AK-based Prestwick Library Screening Results, K. pneumoniae (increase in extracellular AK activity)) of the same compound?
**A.** 0.6

**Q.** What about the fold induction at 50 µM ([2]; planktonic A. baumannii, […], read-out: AK-based Prestwick Library Screening Results, A. baumannii (increase in extracellular AK activity)) of the same compound?
**A.** 0.8

**Q.** What about the fold induction at 50 µM (P. aeruginosa; planktonic P. aeruginosa, […], read-out: AK-based Prestwick Library Screening Results, P. aeruginosa (increase in extracellular AK activity)) of the same compound?
**A.** 0.9

**Q.** And the fold induction at 50 µM (E. cloacae; planktonic E. cloacae, […], read-out: AK-based Prestwick Library Screening Results, E. cloacae (increase in extracellular AK activity))?
**A.** 0.8

**Q.** And the fold induction at 50 µM (E. coli; planktonic E. coli, […], read-out: AK-based Prestwick Library Screening Results, E. coli (increase in extracellular AK activity))?
**A.** 0.9

**Q.** For `CC[C@H](CC[C@@H](C)[C@H]1CC[C@H]2[C@@H]3CC=C4C[C@@H](O)CC[C@]4(C)[C@H]3CC[C@]12C)C(C)C` [Beta-sistosterol], which “AK-based Prestwick library screening result, E. faecium (fold increase in extracellular AK activity)” value (E. faecium; planktonic E. faecium, […]) is on record?
**A.** 0.9

**Q.** And the “AK-based Prestwick library screening result, S. aureus (fold increase in extracellular AK activity)” value ([1]; planktonic S. aureus, […])?
**A.** 0.7

**Q.** And the “AK-based Prestwick library screening result, K. pneumoniae (fold increase in extracellular AK activity)” value (K. pneumoniae; planktonic K. pneumoniae, […])?
**A.** 0.8

**Q.** What about the “AK-based Prestwick library screening result, A. baumannii (fold increase in extracellular AK activity)” value ([2]; planktonic A. baumannii, […]) of the same compound?
**A.** 0.8

**Q.** What about the “AK-based Prestwick library screening result, P. aeruginosa (fold increase in extracellular AK activity)” value (P. aeruginosa; planktonic P. aeruginosa, […]) of the same compound?
**A.** 0.8

**Q.** What about the “AK-based Prestwick library screening result, E. cloacae (fold increase in extracellular AK activity)” value (E. cloacae; planktonic E. cloacae, […]) of the same compound?
**A.** 1.1

**Q.** And the “AK-based Prestwick library screening result, E. coli (fold increase in extracellular AK activity)” value (E. coli; planktonic E. coli, […])?
**A.** 0.8

**Q.** Which fold induction at 50 µM (E. faecium; [10]) does the source give for `CCCCC[C@H](O)/C=C/[C@@H]1[C@@H](C/C=C\CCCC(=O)O)[C@@H](O)C[C@H]1O` [Dinoprost trometamol] here?
**A.** 1

**Q.** What about the fold induction at 50 µM [1, 11] of the same compound?
**A.** 1.4

**Q.** And the fold induction at 50 µM (K. pneumoniae; [12])?
**A.** 1

**Q.** And the fold induction at 50 µM [2, 13]?
**A.** 1.2

**Q.** And the fold induction at 50 µM (P. aeruginosa; [14])?
**A.** 1

**Q.** What about the fold induction at 50 µM (E. cloacae; [15]) of the same compound?
**A.** 1.1

**Q.** What about the fold induction at 50 µM (E. coli; [16]) of the same compound?
**A.** 1

**Q.** What does the source list for `CNCCC=C1c2ccccc2C=Cc2ccccc21` [Norcyclobenzaprine]?
**A.** AK-based Prestwick Library Screening Results, E. faecium (increase in extracellular AK activity) (E. faecium; planktonic E. faecium, cutoff for positive-scoring molecules 3-fold increase): 0.8; AK-based Prestwick Library Screening Results, S. aureus (increase in extracellular AK activity) ([1]; planktonic S. aureus, cutoff for positive-scoring molecules 3-fold increase): 0.6; AK-based Prestwick Library Screening Results, K. pneumoniae (increase in extracellular AK activity) (K. pneumoniae; planktonic K. pneumoniae, cutoff for positive-scoring molecules 3-fold increase): 0.9; AK-based Prestwick Library Screening Results, A. baumannii (increase in extracellular AK activity) ([2]; planktonic A. baumannii, cutoff for positive-scoring molecules 3-fold increase): 1.1; AK-based Prestwick Library Screening Results, P. aeruginosa (increase in extracellular AK activity) (P. aeruginosa; planktonic P. aeruginosa, cutoff for positive-scoring molecules 3-fold increase): 1.0; AK-based Prestwick Library Screening Results, E. cloacae (increase in extracellular AK activity) (E. cloacae; planktonic E. cloacae, cutoff for positive-scoring molecules 3-fold increase): 1.3; AK-based Prestwick Library Screening Results, E. coli (increase in extracellular AK activity) (E. coli; planktonic E. coli, cutoff for positive-scoring molecules 3-fold increase): 6.3
